Experimental data from patent publication US20140121103A1, “COMPOSITIONS COMPRISING FUNGICIDAL SUBSTITUTED DITHIINES AND FURTHER ACTIVES” (BASF SE, priority 2011, published 2014).
Read-outs that look alike come from different tables or passages of the source.

Experiments:
Type in all cases: cell-based
Septoria tritici = assay: Activity against leaf blotch on wheat caused by Septoria tritici (microtiter plate); conditions: active alone
Pyricularia oryzae = conditions: active alone
Leptosphaeria nodorum = assay: Activity against wheat leaf spots caused by Leptosphaeria nodorum (microtiter plate)
Alternaria solani = assay: Activity against early blight caused by Alternaria solani (microtiter plate); conditions: active alone
Botrytis cinerea = assay: Activity against the grey mold Botrytis cinerea in the microtiterplate test; conditions: active alone
[1] = Parastagonospora nodorum, 168 h, active alone, read-out: Observed efficacy

Q: For `CC(C)[C@H](NC(=O)O)C(=O)N[C@H](C)c1nc2ccc(F)cc2s1` [Benthiavalicarb], which Observed efficacy (Septoria tritici; 4 ppm) is on record?
A: 10%

Q: What about the Observed efficacy (Pyricularia oryzae; 4 ppm) of the same compound?
A: 3%

Q: What about the Observed efficacy (Leptosphaeria nodorum; active alone, 4 ppm) of the same compound?
A: 27%

Q: With `N#CC1=C(C#N)SC(C#N)=C(C#N)S1` [Compound I.A, 2,3,5,6-tetracyano-[1,4]dithiine] as the compound, how does the Observed efficacy (Alternaria solani; 1 ppm) read?
A: 11%

Q: And the Observed efficacy (Alternaria solani; 4 ppm)?
A: 46%

Q: What about the Observed efficacy (Septoria tritici; 0.016 ppm) of the same compound?
A: 8%

Q: What about the Observed efficacy (Septoria tritici; 1 ppm) of the same compound?
A: 18%

Q: And the Observed efficacy (Septoria tritici; 4 ppm)?
A: 74%

Q: What about the Observed efficacy (Pyricularia oryzae; 4 ppm) of the same compound?
A: 20%

Q: What about the inhibition of growth at 4 ppm (Leptosphaeria nodorum; Parastagonospora nodorum, 168 h, read-out: Observed efficacy) of the same compound?
A: 53%

Q: And the inhibition of growth at 1 ppm (Leptosphaeria nodorum; [1])?
A: 7%

Q: And the Observed efficacy (Botrytis cinerea; 0.063 ppm)?
A: 1%

Q: What about the Observed efficacy (Botrytis cinerea; 4 ppm) of the same compound?
A: 14%

Q: Which Observed efficacy (Septoria tritici; 1 ppm) does the source give for `Cc1ccc(-c2c(Cl)nc(C#N)n2S(=O)(=O)N(C)C)cc1` [Cyazofamid] here?
A: 2%

Q: And the Observed efficacy (Pyricularia oryzae; 1 ppm)?
A: 8%

Q: And the inhibition of growth at 1 ppm (Leptosphaeria nodorum; [1])?
A: 25%

Q: What does the source list for `N#Cc1c(Cl)c(Cl)c(Cl)c(C#N)c1Cl` [Chlorothalonil]?
A: Observed efficacy (Alternaria solani; 1 ppm): 17%; inhibition of growth at 1 ppm (Leptosphaeria nodorum; [1]): 22%; Observed efficacy (Botrytis cinerea; 4 ppm): 58%

Q: How did the inhibition of growth at 0.25 ppm (Leptosphaeria nodorum; Parastagonospora nodorum, 168 h, active alone, 0.25 ppm, read-out: Observed efficacy) turn out when `COC(=O)N(OC)c1ccccc1COc1ccn(-c2ccc(Cl)cc2)n1` [Pyraclostrobin] was run?
A: 57%

Q: For `COCC(=O)N(c1c(C)cccc1C)[C@H](C)C(=O)OC` [Metalaxyl-M], which Observed efficacy (Septoria tritici; 4 ppm) is on record?
A: 11%

Q: And the Observed efficacy (Pyricularia oryzae; 4 ppm)?
A: 8%

Q: What about the Observed efficacy (Leptosphaeria nodorum; active alone, 4 ppm) of the same compound?
A: 26%

Q: Which Observed efficacy (Septoria tritici; 0.063 ppm) does the source give for `CCCN(CCOc1c(Cl)cc(Cl)cc1Cl)C(=O)n1ccnc1` [Prochloraz] here?
A: 20%

Q: For `CC1COC(Cn2cncn2)(c2ccc(Oc3ccc(Cl)cc3)cc2Cl)O1` (centres unmarked) [Difenoconazol], which Observed efficacy (Pyricularia oryzae; 1 ppm) is on record?
A: 27%

Q: With `Cc1cc(C)nc(Nc2ccccc2)n1` [Pyrimethanil] as the compound, how does the Observed efficacy (Pyricularia oryzae; 16 ppm) read?
A: 72%

Q: How did the Observed efficacy (Septoria tritici; 0.25 ppm) turn out when `CC(C)(C)C(O)(CCc1ccc(Cl)cc1)Cn1cncn1` (centres unmarked) [Tebuconazol] was run?
A: 54%

Q: With `CO/C=C(/C(=O)OC)c1ccccc1Oc1cc(Oc2ccccc2C#N)ncn1` [Azoxystrobin] as the compound, how does the Observed efficacy (Septoria tritici; 0.25 ppm) read?
A: 65%

Q: For `OC(Cc1ccccc1Cl)(Cn1nc[nH]c1=S)C1(Cl)CC1` (centres unmarked) [Prothioconazol], which inhibition of growth at 1 ppm (Leptosphaeria nodorum; [1]) is on record?
A: 52%

Q: How did the Observed efficacy (Septoria tritici; 4 ppm) turn out when `Cc1ccc(C(C)NC(=O)[C@@H](NC(=O)OC(C)C)C(C)C)cc1` (some centres unmarked) [Iprovalicarb] was run?
A: 13%

Q: What about the Observed efficacy (Pyricularia oryzae; 4 ppm) of the same compound?
A: 6%

Q: Which Observed efficacy (Pyricularia oryzae; 16 ppm) does the source give for `O=C(Nc1ccccc1-c1ccc(Cl)cc1)c1cccnc1Cl` [Boscalid] here?
A: 6%

Q: What about the inhibition of growth at 16 ppm (Leptosphaeria nodorum; [1]) of the same compound?
A: 25%

Q: With `Cn1cc(C(=O)Nc2ccccc2-c2cc(F)c(F)c(F)c2)c(C(F)F)n1` [Fluxapyroxad] as the compound, how does the Observed efficacy (Pyricularia oryzae; 0.063 ppm) read?
A: 7%

Q: What about the Observed efficacy (Leptosphaeria nodorum; active alone, 0.063 ppm) of the same compound?
A: 23%

Q: Which Observed efficacy (Septoria tritici; 16 ppm) does the source give for `CC1(C(=O)Nc2ccc(O)c(Cl)c2Cl)CCCCC1` [Fenhexamid] here?
A: 28%

Q: What about the inhibition of growth at 16 ppm (Leptosphaeria nodorum; [1]) of the same compound?
A: 37%

Q: Which results are given for `COC(=O)Nc1nc2ccccc2[nH]1` [Carbendazim]?
A: Observed efficacy (Alternaria solani; 4 ppm): 35%; Observed efficacy (Septoria tritici; 0.016 ppm): 0%; Observed efficacy (Botrytis cinerea; 0.063 ppm): 75%

Q: With `CCCCCCCCc1c(CC)nc2ncnn2c1N` [Ametoctradin] as the compound, how does the Observed efficacy (Alternaria solani; 4 ppm) read?
A: 4%

Q: What about the Observed efficacy (Septoria tritici; 4 ppm) of the same compound?
A: 13%

Q: What about the Observed efficacy (Pyricularia oryzae; 4 ppm) of the same compound?
A: 12%

Q: What about the Observed efficacy (Leptosphaeria nodorum; active alone, 4 ppm) of the same compound?
A: 31%

Q: For `CC(C)NC(=O)N1CC(=O)N(c2cc(Cl)cc(Cl)c2)C1=O` [Iprodion], which Observed efficacy (Septoria tritici; 4 ppm) is on record?
A: 0%

Q: What about the Observed efficacy (Pyricularia oryzae; 4 ppm) of the same compound?
A: 29%

Q: And the inhibition of growth at 4 ppm (Leptosphaeria nodorum; Parastagonospora nodorum, 168 h, active alone, 4 ppm, read-out: Observed efficacy)?
A: 54%
